For the test, the target named is WDR5 (Homo sapiens (Human), UniProt P61964). Briefly: Surface Plasmon Resonance (SPR) assay, KD and residence time. The class given is binding. The settings on record: surface plasmon resonance (SPR); read-out: WDR5 binding affinity (KD). A general note: Surface plasmon resonance follows binding to a sensor surface in real time, without labels.

pKd: −log10 of the molar value.

One may read the pKd as the Kd on a negative log10 scale, so that one unit is a factor of ten. For `C[C@@H]1CN(c2cc(F)c(C3=CCCN(c4ncc(C#N)s4)CC3)cc2NC(=O)c2c[nH]c(=O)cc2C(F)(F)F)C[C@H](C)N1C` [Example 700, N-[5-[1-(5-cyano-1,3-thiazol-2-yl)-2,3,6,7-tetrahydroazepin-4-yl]-4-fluoro-2-[(3R,5S)-3,4,5-trimethylpiperazin-1-yl]phenyl]-6-oxo-4-(trifluoromethyl)-1H-pyridine-3-carboxamide], the pKd is 8.14. The result for `C[C@@H]1CN(c2cc(F)c(C3=CCCN(c4ccnc(C#N)n4)C3)cc2NC(=O)c2c[nH]c(=O)cc2C(F)(F)F)C[C@H](C)N1C` [Example 701, N-[5-[1-(2-cyanopyrimidin-4-yl)-3,6-dihydro-2H-pyridin-5-yl]-4-fluoro-2-[(3R,5S)-3,4,5-trimethylpiperazin-1-yl]phenyl]-6-oxo-4-(trifluoromethyl)-1H-pyridine-3-carboxamide] reads 8.76; that for `C[C@@H]1CN(c2cc(F)c(C3=CCN(C(=O)OC4CC(F)(F)C4)CC3)cc2NC(=O)c2c[nH]c(=O)cc2C(F)F)C[C@H](C)N1C` [Example 702, (3,3-difluorocyclobutyl) 4-[5-[[4-(difluoromethyl)-6-oxo-1H-pyridine-3-carbonyl]amino]-2-fluoro-4-[(3R,5S)-3,4,5-trimethylpiperazin-1-yl]phenyl]-3,6-dihydro-2H-pyridine-1-carboxylate], 8.46. The result for `C[C@@H]1CN(c2cc(F)c(C3=CCCN(C(=O)OC4CC(F)(F)C4)C3)cc2NC(=O)c2c[nH]c(=O)cc2C(F)F)C[C@H](C)N1C` [Example 704, (3,3-difluorocyclobutyl) 5-[5-[[4-(difluoromethyl)-6-oxo-1H-pyridine-3-carbonyl]amino]-2-fluoro-4-[(3R,5S)-3,4,5-trimethylpiperazin-1-yl]phenyl]-3,6-dihydro-2H-pyridine-1-carboxylate] reads 8.57; that for `C[C@@H]1CN(c2cc(F)c(C3=CCN(c4ccnc(C#N)n4)CC3)cc2NC(=O)c2c[nH]c(=O)cc2C(F)(F)F)C[C@H](C)N1C` [Example 709, N-[5-[1-(2-cyanopyrimidin-4-yl)-3,6-dihydro-2H-pyridin-4-yl]-4-fluoro-2-[(3R,5S)-3,4,5-trimethylpiperazin-1-yl]phenyl]-6-oxo-4-(trifluoromethyl)-1H-pyridine-3-carboxamide], 9.14; that for `C[C@@H]1CN(c2cc(F)c(-c3cc(F)c(C(=O)NC4CCCCC4)c(F)c3)cc2NC(=O)c2c[nH]c(=O)cc2C(F)(F)F)C[C@H](C)N1C` [Example 710, N-[5-[4-(cyclohexylcarbamoyl)-3,5-difluorophenyl]-4-fluoro-2-[(3R,5S)-3,4,5-trimethylpiperazin-1-yl]phenyl]-6-oxo-4-(trifluoromethyl)-1H-pyridine-3-carboxamide], 8.69.

`C[C@@H]1CN(c2cc(F)c(-c3cc(F)c(C(=O)NC4CCCCC4(C)C)c(F)c3)cc2NC(=O)c2c[nH]c(=O)cc2C(F)(F)F)C[C@H](C)N1C` (stereo partly drawn) [Example 711, N-[5-[4-[(2,2-dimethylcyclohexyl)carbamoyl]-3,5-difluorophenyl]-4-fluoro-2-[(3R,5S)-3,4,5-trimethylpiperazin-1-yl]phenyl]-6-oxo-4-(trifluoromethyl)-1H-pyridine-3-carboxamide]: the pKd is 8.50.

For `C[C@@H]1CN(c2cc(F)c(-c3cc(F)c(C(=O)NCC4CC4)c(F)c3)cc2NC(=O)c2c[nH]c(=O)cc2C(F)(F)F)C[C@H](C)N1C` [Example 712, N-[5-[4-(cyclopropylmethylcarbamoyl)-3,5-difluorophenyl]-4-fluoro-2-[(3R,5S)-3,4,5-trimethylpiperazin-1-yl]phenyl]-6-oxo-4-(trifluoromethyl)-1H-pyridine-3-carboxamide], the negative logarithm of the Kd (pKd) was 8.65.

Consider `C[C@@H]1CN(c2cc(F)c(-c3csc(CN4CCOCC4)n3)cc2NC(=O)c2c[nH]c(=O)cc2C(F)(F)F)C[C@H](C)N1C` [Example 713, N-[4-fluoro-5-[2-(morpholin-4-ylmethyl)-1,3-thiazol-4-yl]-2-[(3R,5S)-3,4,5-trimethylpiperazin-1-yl]phenyl]-6-oxo-4-(trifluoromethyl)-1H-pyridine-3-carboxamide], for which the pKd is 8.59. In the case of `C[C@@H]1CN(c2cc(F)c(-c3cnn(CCN4CCOCC4)c3)cc2NC(=O)c2c[nH]c(=O)cc2C(F)(F)F)C[C@H](C)N1C` [Example 716, N-[4-fluoro-5-[1-(2-morpholin-4-ylethyl)pyrazol-4-yl]-2-[(3R,5S)-3,4,5-trimethylpiperazin-1-yl]phenyl]-6-oxo-4-(trifluoromethyl)-1H-pyridine-3-carboxamide] it was 8.62. In the case of `C[C@@H]1CN(c2cc(F)c(-c3cnn(CCN4CCOCC4)c3)cc2NC(=O)c2cn(C)c(=O)cc2C(F)F)C[C@H](C)N1C` [Example 717, 4-(difluoromethyl)-N-[4-fluoro-5-[1-(2-morpholin-4-ylethyl)pyrazol-4-yl]-2-[(3R,5S)-3,4,5-trimethylpiperazin-1-yl]phenyl]-1-methyl-6-oxopyridine-3-carboxamide] it was 7.67; in that of `C[C@@H]1CN(c2cc(F)c(-c3cnc(N4CCOCC4)nc3)cc2NC(=O)c2ccc(F)cc2C(F)F)C[C@H](C)N1C` [Example 722, 2-(difluoromethyl)-4-fluoro-N-[4-fluoro-5-(2-morpholin-4-ylpyrimidin-5-yl)-2-[(3R,5S)-3,4,5-trimethylpiperazin-1-yl]phenyl]benzamide], 8.87; in that of `CC(C)OC(=O)N1CCC=C(c2cc(NC(=O)c3c[nH]c(=O)cc3C(F)F)c(N3C[C@@H](C)N(C)[C@@H](C)C3)cc2F)CC1` [Example 723, propan-2-yl 4-[5-[[4-(difluoromethyl)-6-oxo-1H-pyridine-3-carbonyl]amino]-2-fluoro-4-[(3R,5S)-3,4,5-trimethylpiperazin-1-yl]phenyl]-2,3,6,7-tetrahydroazepine-1-carboxylate], 8.51. In the case of `CC(C)OC(=O)N1CCC=C(c2cc(NC(=O)c3c[nH]c(=O)cc3C(F)F)c(N3C[C@@H](C)N(C)[C@@H](C)C3)cc2F)C1` [Example 725, propan-2-yl 5-[5-[[4-(difluoromethyl)-6-oxo-1H-pyridine-3-carbonyl]amino]-2-fluoro-4-[(3R,5S)-3,4,5-trimethylpiperazin-1-yl]phenyl]-3,6-dihydro-2H-pyridine-1-carboxylate] it was 8.80; in that of `C[C@@H]1CN(c2cc(F)c(C3=CCCN(C(=O)OC4(C)CCC4)CC3)cc2NC(=O)c2c[nH]c(=O)cc2C(F)F)C[C@H](C)N1C` [Example 729, (1-methylcyclobutyl) 4-[5-[[4-(difluoromethyl)-6-oxo-1H-pyridine-3-carbonyl]amino]-2-fluoro-4-[(3R,5S)-3,4,5-trimethylpiperazin-1-yl]phenyl]-2,3,6,7-tetrahydroazepine-1-carboxylate], 8.51; in that of `C[C@@H]1CN(c2cc(F)c(C3=CCCN(C(=O)OC4CC(F)(F)C4)CC3)cc2NC(=O)c2c[nH]c(=O)cc2C(F)F)C[C@H](C)N1C` [Example 730, (3,3-difluorocyclobutyl) 4-[5-[[4-(difluoromethyl)-6-oxo-1H-pyridine-3-carbonyl]amino]-2-fluoro-4-[(3R,5S)-3,4,5-trimethylpiperazin-1-yl]phenyl]-2,3,6,7-tetrahydroazepine-1-carboxylate], 8.10. `C[C@@H]1CN(c2cc(F)c(C3=CCCN(c4ncc(C#N)s4)CC3)cc2NC(=O)c2c[nH]c(=O)cc2C(F)F)C[C@H](C)N1C` [Example 731, N-[5-[1-(5-cyano-1,3-thiazol-2-yl)-2,3,6,7-tetrahydroazepin-4-yl]-4-fluoro-2-[(3R,5S)-3,4,5-trimethylpiperazin-1-yl]phenyl]-4-(difluoromethyl)-6-oxo-1H-pyridine-3-carboxamide]: the pKd is 8.12. As for `C[C@@H]1CN(c2cc(F)c(-c3ccc(C(=O)NC4CCCCC4)c(F)c3)cc2NC(=O)c2c[nH]c(=O)cc2C(F)(F)F)C[C@H](C)N1C` [Example 732, N-[5-[4-(cyclohexylcarbamoyl)-3-fluorophenyl]-4-fluoro-2-[(3R,5S)-3,4,5-trimethylpiperazin-1-yl]phenyl]-6-oxo-4-(trifluoromethyl)-1H-pyridine-3-carboxamide], the pKd is 8.56.

Regarding `C[C@@H]1CN(c2cc(F)c(-c3ccc(C(=O)N(C)CC4CC4)c(F)c3)cc2NC(=O)c2c[nH]c(=O)cc2C(F)(F)F)C[C@H](C)N1C` [Example 733, N-[5-[4-[cyclopropylmethyl(methyl)carbamoyl]-3-fluorophenyl]-4-fluoro-2-[(3R,5S)-3,4,5-trimethylpiperazin-1-yl]phenyl]-6-oxo-4-(trifluoromethyl)-1H-pyridine-3-carboxamide], the pKd was 8.89. In the case of `C[C@@H]1CN(c2cc(F)c(-c3ccc(C(=O)NC4CCC(F)(F)CC4)c(F)c3)cc2NC(=O)c2c[nH]c(=O)cc2C(F)(F)F)C[C@H](C)N1C` [Example 734, N-[5-[4-[(4,4-difluorocyclohexyl)carbamoyl]-3-fluorophenyl]-4-fluoro-2-[(3R,5S)-3,4,5-trimethylpiperazin-1-yl]phenyl]-6-oxo-4-(trifluoromethyl)-1H-pyridine-3-carboxamide] it was 8.38; in that of `C[C@@H]1CN(c2cc(F)c(-c3ccc(C(=O)NCC4CC4)c(F)c3)cc2NC(=O)c2c[nH]c(=O)cc2C(F)(F)F)C[C@H](C)N1C` [Example 735, N-[5-[4-(cyclopropylmethylcarbamoyl)-3-fluorophenyl]-4-fluoro-2-[(3R,5S)-3,4,5-trimethylpiperazin-1-yl]phenyl]-6-oxo-4-(trifluoromethyl)-H-pyridine-3-carboxamide], 8.37; in that of `C[C@@H]1COCCN1c1ncc(-c2cc(NC(=O)c3ccc(F)cc3C(F)(F)F)c(N3CCN(C)[C@@H](C)C3)cc2F)cn1` [Example 737, 4-fluoro-N-[4-fluoro-2-[(3S)-3,4-dimethylpiperazin-1-yl]-5-[2-[(3R)-3-methylmorpholin-4-yl]pyrimidin-5-yl]phenyl]-2-(trifluoromethyl)benzamide], 8.34. In the case of `C[C@@H]1CN(c2nccc(-c3cc(NC(=O)c4ccc(F)cc4C(F)(F)F)c(N4CCN(C)[C@@H](C)C4)cc3F)n2)CCO1` [Example 738, 4-fluoro-N-[4-fluoro-2-[(3S)-3,4-dimethylpiperazin-1-yl]-5-[2-[(2R)-2-methylmorpholin-4-yl]pyrimidin-4-yl]phenyl]-2-(trifluoromethyl)benzamide] it was 8.40.
